Experimental data reported in ChEMBL document CHEMBL5247644, “Design and Synthesis of Sulfonium Derivatives: A Novel Class of α-Glucosidase Inhibitors with Potent In Vivo Antihyperglycemic Activities” (J Med Chem, 2023).
Activity calls are given as the source filed them. The calls are words filed in the database; no cut-off is given here.

Assays:
[1] = target: T1, Sucrase-isomaltase, intestinal (Rattus norvegicus, UniProt P23739); assay: Inhibition of sucrase in rat small intestinal brush border membrane vesicles using sucrose as substrate incubated for 30 mins by glucose-oxidase method; format: cell membranes, Small intestine, Membrane vesicle
T1 sequence (P23739 1-1013 limits assumed): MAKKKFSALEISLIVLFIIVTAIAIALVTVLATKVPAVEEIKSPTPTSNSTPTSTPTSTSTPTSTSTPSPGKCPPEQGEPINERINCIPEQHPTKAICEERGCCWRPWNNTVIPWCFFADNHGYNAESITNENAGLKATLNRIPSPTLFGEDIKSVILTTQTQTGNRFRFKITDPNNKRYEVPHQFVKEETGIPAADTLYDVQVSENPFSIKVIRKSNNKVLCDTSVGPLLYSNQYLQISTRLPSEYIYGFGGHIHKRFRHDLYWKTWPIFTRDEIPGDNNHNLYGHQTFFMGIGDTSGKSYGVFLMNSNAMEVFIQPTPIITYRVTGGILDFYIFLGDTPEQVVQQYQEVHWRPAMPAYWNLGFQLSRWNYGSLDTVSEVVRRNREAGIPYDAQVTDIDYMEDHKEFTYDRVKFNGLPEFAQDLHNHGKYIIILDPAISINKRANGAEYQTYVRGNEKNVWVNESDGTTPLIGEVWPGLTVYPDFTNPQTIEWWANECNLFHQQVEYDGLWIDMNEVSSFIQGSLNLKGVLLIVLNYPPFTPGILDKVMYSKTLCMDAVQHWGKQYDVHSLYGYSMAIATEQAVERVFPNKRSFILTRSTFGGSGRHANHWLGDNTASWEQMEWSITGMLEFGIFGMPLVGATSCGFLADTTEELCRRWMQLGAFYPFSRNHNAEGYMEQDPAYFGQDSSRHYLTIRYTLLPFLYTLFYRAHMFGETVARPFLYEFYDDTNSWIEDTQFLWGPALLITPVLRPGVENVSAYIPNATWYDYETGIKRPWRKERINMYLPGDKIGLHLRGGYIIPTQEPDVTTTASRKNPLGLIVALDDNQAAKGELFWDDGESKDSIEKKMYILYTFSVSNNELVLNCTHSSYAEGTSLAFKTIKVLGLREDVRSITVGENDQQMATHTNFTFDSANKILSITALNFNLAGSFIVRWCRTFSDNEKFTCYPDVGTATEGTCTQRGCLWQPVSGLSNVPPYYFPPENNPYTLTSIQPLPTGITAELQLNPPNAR
T1 sequence (P23739 1014-1841 limits assumed): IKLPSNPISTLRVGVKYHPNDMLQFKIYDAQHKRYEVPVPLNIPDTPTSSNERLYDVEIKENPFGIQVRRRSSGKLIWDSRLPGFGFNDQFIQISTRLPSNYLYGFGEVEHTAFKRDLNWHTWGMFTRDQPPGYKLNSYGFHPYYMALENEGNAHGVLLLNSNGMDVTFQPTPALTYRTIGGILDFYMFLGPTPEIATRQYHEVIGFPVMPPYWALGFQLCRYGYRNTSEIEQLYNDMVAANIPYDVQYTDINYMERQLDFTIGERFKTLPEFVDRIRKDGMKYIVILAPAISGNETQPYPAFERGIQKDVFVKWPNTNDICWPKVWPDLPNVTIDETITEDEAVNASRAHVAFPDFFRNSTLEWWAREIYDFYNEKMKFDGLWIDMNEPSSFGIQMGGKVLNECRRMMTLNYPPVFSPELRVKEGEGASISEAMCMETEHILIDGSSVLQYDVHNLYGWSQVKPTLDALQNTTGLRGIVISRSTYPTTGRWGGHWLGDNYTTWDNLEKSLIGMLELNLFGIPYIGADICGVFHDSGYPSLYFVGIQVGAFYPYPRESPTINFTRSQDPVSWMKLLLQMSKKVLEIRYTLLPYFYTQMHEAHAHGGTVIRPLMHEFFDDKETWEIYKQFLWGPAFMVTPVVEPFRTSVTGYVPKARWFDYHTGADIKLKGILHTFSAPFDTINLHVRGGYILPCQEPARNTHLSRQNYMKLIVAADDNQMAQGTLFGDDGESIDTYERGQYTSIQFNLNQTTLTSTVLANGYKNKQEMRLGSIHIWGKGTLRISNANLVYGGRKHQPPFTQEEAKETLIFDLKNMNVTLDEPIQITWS

[2] = Inhibition of maltase in rat small intestinal brush border membrane vesicles using maltose as substrate incubated for 30 mins by glucose-oxidase method; format: cell membranes, Small intestine, Membrane vesicle
Mus musculus [3] = assay: Antihyperglycemic activity in overnight fasted ICR mouse assessed as decrease in blood glucose level at 20 mg/kg, IG administered via tube and measured after 30 mins by sucrose loading test relative to control; format: functional; parameters: scale not given: the % may be the effect or the level left; settings: 0.5 h
Mus musculus [4] = assay: Antihyperglycemic activity in overnight fasted ICR mouse assessed as decrease in blood glucose level at 20 mg/kg, IG administered via tube and measured after 60 mins by sucrose loading test relative to control; format: functional; parameters: scale not given: the % may be the effect or the level left; settings: 1 h
Mus musculus [5] = assay: Antihyperglycemic activity in overnight fasted ICR mouse assessed as decrease in blood glucose level at 20 mg/kg, IG administered via tube and measured after 15 mins by sucrose loading test relative to control; format: functional; parameters: scale not given: the % may be the effect or the level left; settings: 0.25 h
Mus musculus [6] = assay: Antihyperglycemic activity in overnight fasted ICR mouse assessed as decrease in AUC of blood glucose level at 20 mg/kg, IG administered via tube and measured after 15 to 60 mins by sucrose loading test relative to control; format: functional; parameters: scale not given: the % may be the effect or the level left; settings: time 15-60 min
Mus musculus [7] = assay: Antihyperglycemic activity in overnight fasted ICR mouse assessed as decrease in AUC of blood glucose level at 10 mg/kg, IG administered via tube and measured after 15 to 60 mins by sucrose loading test relative to control; format: functional; parameters: scale not given: the % may be the effect or the level left; settings: time 15-60 min
Mus musculus [8] = assay: Antihyperglycemic activity in overnight fasted ICR mouse assessed as decrease in blood glucose level at 10 mg/kg, IG administered via tube and measured after 15 mins by sucrose loading test relative to control; format: functional; parameters: scale not given: the % may be the effect or the level left; settings: 0.25 h
Mus musculus [9] = assay: Antihyperglycemic activity in overnight fasted ICR mouse assessed as decrease in blood glucose level at 1 mg/kg, IG administered via tube and measured after 60 mins by sucrose loading test relative to control; format: functional; parameters: scale not given: the % may be the effect or the level left
Rattus norvegicus [10] = assay: Antihyperglycemic activity in fasted rat assessed as decrease in blood glucose level at 1 mg/kg measured after 60 mins by maltose loading test relative to control; format: functional; parameters: scale not given: the % may be the effect or the level left
Mus musculus [11] = assay: Antihyperglycemic activity in overnight fasted ICR mouse assessed as decrease in blood glucose level at 1 mg/kg, IG administered via tube and measured after 15 mins by sucrose loading test relative to control; format: functional; parameters: scale not given: the % may be the effect or the level left; settings: 0.25 h
Rattus norvegicus [12] = assay: Antihyperglycemic activity in fasted rat assessed as decrease in blood glucose level at 1 mg/kg measured after 30 mins by maltose loading test relative to control; format: functional; parameters: scale not given: the % may be the effect or the level left; settings: 0.5 h
Mus musculus [13] = assay: Antihyperglycemic activity in overnight fasted ICR mouse assessed as decrease in AUC of blood glucose level at 1 mg/kg, IG administered via tube and measured after 15 to 60 mins by sucrose loading test relative to control; format: functional; parameters: scale not given: the % may be the effect or the level left; settings: time 15-60 min
Mus musculus [14] = assay: Antihyperglycemic activity in overnight fasted ICR mouse assessed as decrease in blood glucose level at 10 mg/kg, IG administered via tube and measured after 30 mins by sucrose loading test relative to control; format: functional; parameters: scale not given: the % may be the effect or the level left; settings: 0.5 h
Mus musculus [15] = assay: Antihyperglycemic activity in overnight fasted ICR mouse assessed as decrease in blood glucose level at 1 mg/kg, IG administered via tube and measured after 30 mins by sucrose loading test relative to control; format: functional; parameters: scale not given: the % may be the effect or the level left; settings: 0.5 h
Rattus norvegicus [16] = assay: Antihyperglycemic activity in fasted rat assessed as decrease in blood glucose level at 1 mg/kg measured after 15 mins by maltose loading test relative to control; format: functional; parameters: scale not given: the % may be the effect or the level left; settings: 0.25 h
Mus musculus [17] = assay: Antihyperglycemic activity in overnight fasted ICR mouse assessed as decrease in blood glucose level at 10 mg/kg, IG administered via tube and measured after 60 mins by sucrose loading test relative to control; format: functional; parameters: scale not given: the % may be the effect or the level left; settings: 1 h
Rattus norvegicus [18] = assay: Antihyperglycemic activity in fasted rat assessed as decrease in AUC of blood glucose level at 1 mg/kg measured for 15 to 60 mins by maltose loading test relative to control; format: functional; parameters: scale not given: the % may be the effect or the level left; settings: time 15-60 min
[19] = target: T1, Sucrase-isomaltase, intestinal; assay: Binding affinity to sucrase in rat small intestinal brush border membrane vesicles assessed as inhibition constant using sucrose as substrate incubated for 30 mins by glucose-oxidase method; format: cell membranes, Small intestine, Membrane vesicle
[20] = target: Lysosomal alpha-glucosidase (Rattus norvegicus) (UniProt Q6P7A9); assay: Potency index, ratio of neoponkoranol IC50 to test compound IC50 for inhibition of maltase in rat small intestinal brush border membrane vesicles using maltose as substrate incubated for 30 mins by glucose-oxidase method; format: cell membranes; settings: Small intestine, Membrane vesicle
Chain of Lysosomal alpha-glucosidase (Rattus norvegicus) (Q6P7A9 whole entry): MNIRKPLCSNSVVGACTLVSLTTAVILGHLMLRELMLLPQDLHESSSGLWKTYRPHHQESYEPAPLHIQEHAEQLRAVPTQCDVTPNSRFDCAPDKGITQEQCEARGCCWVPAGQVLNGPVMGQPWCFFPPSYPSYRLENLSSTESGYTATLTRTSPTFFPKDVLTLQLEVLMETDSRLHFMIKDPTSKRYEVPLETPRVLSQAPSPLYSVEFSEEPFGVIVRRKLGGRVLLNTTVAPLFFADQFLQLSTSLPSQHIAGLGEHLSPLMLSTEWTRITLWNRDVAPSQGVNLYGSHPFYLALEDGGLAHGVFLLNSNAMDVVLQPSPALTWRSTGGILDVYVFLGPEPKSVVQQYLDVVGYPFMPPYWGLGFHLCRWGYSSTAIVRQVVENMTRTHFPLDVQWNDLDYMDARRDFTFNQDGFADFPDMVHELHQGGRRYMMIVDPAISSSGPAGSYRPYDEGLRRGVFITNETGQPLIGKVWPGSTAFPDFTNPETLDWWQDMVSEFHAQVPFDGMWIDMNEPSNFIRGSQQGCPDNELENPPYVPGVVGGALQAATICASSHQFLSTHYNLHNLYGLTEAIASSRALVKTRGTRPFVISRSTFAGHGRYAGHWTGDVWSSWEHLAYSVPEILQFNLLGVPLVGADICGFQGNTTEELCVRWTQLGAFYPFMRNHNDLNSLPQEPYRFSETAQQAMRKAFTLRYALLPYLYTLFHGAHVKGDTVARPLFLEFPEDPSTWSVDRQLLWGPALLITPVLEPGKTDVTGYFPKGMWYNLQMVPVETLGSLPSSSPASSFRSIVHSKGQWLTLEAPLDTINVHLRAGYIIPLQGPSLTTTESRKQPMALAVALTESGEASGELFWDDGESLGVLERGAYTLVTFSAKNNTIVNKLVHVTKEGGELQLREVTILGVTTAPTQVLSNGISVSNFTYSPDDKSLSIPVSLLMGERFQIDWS

[21] = target: Sucrase-isomaltase, intestinal (Rattus norvegicus) (UniProt P23739); assay: Potency index, ratio of neoponkoranol IC50 to test compound IC50 for inhibition of sucrase in rat small intestinal brush border membrane vesicles using sucrose as substrate incubated for 30 mins by glucose-oxidase method; format: cell membranes; settings: Small intestine, Membrane vesicle
Chain of Sucrase-isomaltase, intestinal (Rattus norvegicus) (P23739 1-1013 limits assumed): as the sequence (P23739 1-1013 limits assumed) above
Chain of Sucrase-isomaltase, intestinal (Rattus norvegicus) (P23739 1014-1841 limits assumed): as the sequence (P23739 1014-1841 limits assumed) above

[22] = target: Lysosomal alpha-glucosidase (Rattus norvegicus) (UniProt Q6P7A9); assay: Competitive inhibition of maltase in rat small intestinal brush border membrane vesicles using maltose as substrate incubated for 30 mins by Lineweaver-Burk plot analysis; format: cell membranes; settings: Small intestine, Membrane vesicle
[23] = target: Sucrase-isomaltase, intestinal (Rattus norvegicus) (UniProt P23739); assay: Competitive inhibition of sucrase in rat small intestinal brush border membrane vesicles using sucrose as substrate incubated for 30 mins by Lineweaver-Burk plot analysis; format: cell membranes; settings: Small intestine, Membrane vesicle
[24] = target: Lysosomal alpha-glucosidase (Rattus norvegicus) (UniProt Q6P7A9); assay: Potency index, ratio of voglibose IC50 to test compound IC50 for inhibition of maltase in rat small intestinal brush border membrane vesicles using maltose as substrate incubated for 30 mins by glucose-oxidase method; format: cell membranes; settings: Small intestine, Membrane vesicle
[25] = target: Lysosomal alpha-glucosidase (Rattus norvegicus) (UniProt Q6P7A9); assay: Potency index, ratio of acarbose IC50 to test compound IC50 for inhibition of maltase in rat small intestinal brush border membrane vesicles using maltose as substrate incubated for 30 mins by glucose-oxidase method; format: cell membranes; settings: Small intestine, Membrane vesicle

O=[N+]([O-])c1cccc(C2OC[C@@H](O)[C@@H]([C@H](O)C[S@+]3C[C@@H](O)[C@H](O)[C@H]3CO)O2)c1 (stereo partly drawn)
IC50 [1]: 3400 nM
IC50 [2]: 6700 nM

C[C@H]1O[C@H](O[C@H]2[C@H](O)[C@@H](O)[C@@H](O[C@H]3[C@H](O)[C@@H](O)C(O)O[C@@H]3CO)O[C@@H]2CO)[C@H](O)[C@@H](O)[C@@H]1N[C@H]1C=C(CO)[C@@H](O)[C@H](O)[C@H]1O (stereo partly drawn) [ACARBOSE]
Activity (Mus musculus [3]): 50.9%
Activity (Mus musculus [4]): 45.1%
Activity (Mus musculus [5]): 40.2%
Activity (Mus musculus [6]): 40%

OC[C@@H]1[C@@H](O)[C@H](O)C[S@@+]1C[C@@H](O)[C@@H](O)[C@@H](O)[C@@H](O)CO
Activity (Mus musculus [7]): 40%
Activity (Mus musculus [8]): 37.5%
Activity (Mus musculus [9]): 35.3%
Activity (Rattus norvegicus [10]): 19.8%
Activity (Mus musculus [11]): 27.8%
Activity (Rattus norvegicus [12]): 34.5%
Activity (Mus musculus [13]): 29.6%
Activity (Mus musculus [14]): 48.3%
IC50 [1]: 1900 nM
Activity (Mus musculus [15]): 39.6%
IC50 [2]: 7800 nM
Activity (Rattus norvegicus [16]): 35.3%
Activity (Mus musculus [17]): 45.1%
Activity (Rattus norvegicus [18]): 23%

OC[C@@H]1[C@@H](O)[C@H](O)C[S@@+]1C[C@@H](O)[C@H]1OC(c2cccc(F)c2)OC[C@H]1O (stereo partly drawn)
IC50 [1]: 700 nM
IC50 [2]: 1700 nM

OC[C@@H]1[C@@H](O)[C@H](O)C[S@@+]1C[C@@H](O)[C@H]1OC(c2ccccc2F)OC[C@H]1O (stereo partly drawn)
Ki [19]: 562 nM
IC50 [1]: 400 nM
IC50 [2]: 840 nM

OC[C@@H]1[C@@H](O)[C@H](O)C[S@@+]1C[C@@H](O)[C@H]1OC(c2cccc(C(F)(F)F)c2)OC[C@H]1O (stereo partly drawn)
IC50 [1]: 300 nM
IC50 [2]: 1500 nM

OCC(CO)N[C@H]1C[C@](O)(CO)[C@@H](O)[C@H](O)[C@H]1O [VOGLIBOSE]
Activity (Rattus norvegicus [10]): 43.3%
Activity (Rattus norvegicus [12]): 55.1%
Activity (Rattus norvegicus [16]): 50%
Activity (Rattus norvegicus [18]): 41.1%

OC[C@@H]1[C@@H](O)[C@H](O)C[S@@+]1C[C@@H](O)[C@H]1OC(c2ccccc2)OC[C@H]1O (stereo partly drawn)
Ki [19]: 758 nM
Ratio IC50 [20]: 10
IC50 [1]: 420 nM
IC50 [2]: 830 nM
Ratio IC50 [21]: 5

OC[C@@H]1[C@@H](O)[C@H](O)C[S@@+]1C[C@@H](O)[C@H]1OC(c2cccc(Cl)c2)OC[C@H]1O (stereo partly drawn)
IC50 [1]: 1900 nM
IC50 [2]: 3100 nM

OC[C@@H]1[C@@H](O)[C@H](O)C[S@@+]1C[C@@H](O)[C@H]1OC(c2ccc(Cl)cc2)OC[C@H]1O (stereo partly drawn)
IC50 [1]: 2300 nM
IC50 [2]: 4000 nM

OC[C@@H]1[C@@H](O)[C@H](O)C[S@@+]1C[C@@H](O)[C@H]1OC(c2ccccc2Cl)OC[C@H]1O (stereo partly drawn)
Ki [19]: 474 nM
IC50 [1]: 540 nM
IC50 [2]: 410 nM

OC[C@@H]1[C@@H](O)[C@H](O)C[S@@+]1C[C@@H](O)[C@H]1OC(c2ccccc2C(F)(F)F)OC[C@H]1O.[Cl-] (stereo partly drawn)
Activity (Mus musculus [7]): 45.8%
Activity (Mus musculus [8]): 43.5%
Activity (Mus musculus [9]): 37.8%
Activity (Rattus norvegicus [10]): 43.2%
Ki [19]: 398 nM
Activity (Mus musculus [11]): 35.1%
Activity (Rattus norvegicus [12]): 48.7%
Activity (Mus musculus [13]): 34%
Ratio IC50 [20]: 40
Activity (Mus musculus [14]): 56.6%
IC50 [1]: 220 nM
Activity (Mus musculus [15]): 47.3%
inhibition [22]: Active
IC50 [2]: 230 nM
Activity (Rattus norvegicus [16]): 45.7%
inhibition [23]: Active
Activity (Mus musculus [17]): 51%
Activity (Rattus norvegicus [18]): 39.7%

OC[C@@H]1[C@@H](O)[C@H](O)C[S@@+]1C[C@@H](O)[C@H]1OC(c2ccc(F)cc2)OC[C@H]1O (stereo partly drawn)
IC50 [1]: 2500 nM
IC50 [2]: 3000 nM

OC[C@@H]1[C@@H](O)[C@H](O)C[S@@+]1C[C@@H](O)[C@H]1OC(c2ccc(C(F)(F)F)cc2)OC[C@H]1O (stereo partly drawn)
IC50 [1]: 2300 nM
IC50 [2]: 3500 nM

O=[N+]([O-])c1ccc(C2OC[C@@H](O)[C@@H]([C@H](O)C[S@+]3C[C@@H](O)[C@H](O)[C@H]3CO)O2)cc1 (stereo partly drawn)
IC50 [1]: 4700 nM
IC50 [2]: 4500 nM

Cl.O=[N+]([O-])c1ccccc1C1OC[C@@H](O)[C@@H]([C@H](O)C[S@+]2C[C@@H](O)[C@H](O)[C@H]2CO)O1 (stereo partly drawn)
Activity (Mus musculus [7]): 50.1%
Activity (Mus musculus [8]): 49%
Activity (Mus musculus [9]): 43.9%
Activity (Rattus norvegicus [10]): 48.3%
Ratio IC50 [24]: 7.5
Ki [19]: 352 nM
Activity (Mus musculus [11]): 41.1%
Activity (Rattus norvegicus [12]): 54.6%
Activity (Mus musculus [13]): 38.1%
Ratio IC50 [20]: 40
Activity (Mus musculus [14]): 60%
IC50 [1]: 100 nM
Activity (Mus musculus [15]): 48%
inhibition [22]: Active
IC50 [2]: 200 nM
Ratio IC50 [25]: 16
Activity (Rattus norvegicus [16]): 50%
Ratio IC50 [21]: 20
inhibition [23]: Active
Activity (Mus musculus [17]): 54.6%
Activity (Rattus norvegicus [18]): 45.6%
